# From PubChem BioAssay (NCI)
#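 Abbreviation: GI50, concentration required for 50% inhibition of growth. The concentration for full growth arrest is given as TGI.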
# Legend:
# Test in all cases: inhibition of tumour cell growth, NCI panel, 384-well format
# [1] = system: EKVX NSCLC
# [2] = system: HCC-2998 colon
# [3] = system: IGROV1 ovarian
# [4] = system: LOX IMVI melanoma
# [5] = system: MCF7 breast
# [6] = system: MDA-MB-231 breast
# [7] = system: MDA-MB-468 breast
# [8] = system: MOLT-4 leukemia
# [9] = system: NCI/ADR-RES ovarian
# [10] = system: SF-268 CNS
# [11] = system: SK-MEL-28 melanoma
# [12] = system: T-47D breast
# [13] = system: UO-31 renal
compound,measurement,setting,value
C=CC(=O)Nc1cc(C)ccc1Nc1nc(Nc2cc(OC)ncc2C)ncc1C(F)(F)F,GI50,[1],300 nM
same,TGI,[1],1620 nM
same,GI50,[2],123 nM
same,TGI,[2],376 nM
same,GI50,[3],233 nM
same,TGI,[3],906 nM
same,GI50,[4],169 nM
same,TGI,[4],423 nM
same,GI50,[5],690 nM
same,TGI,[5],4130 nM
same,GI50,[6],283 nM
same,TGI,[6],1100 nM
same,GI50,[7],1150 nM
same,TGI,[7],2570 nM
same,GI50,[8],879 nM
same,TGI,[8],2150 nM
same,GI50,[9],1030 nM
same,TGI,[9],2590 nM
same,GI50,[10],1500 nM
same,TGI,[10],5940 nM
same,GI50,[11],86.6 nM
same,TGI,[11],387 nM
same,GI50,[12],813 nM
same,TGI,[12],5380 nM
same,GI50,[13],394 nM
same,TGI,[13],2880 nM
